Numbers after ± are expanded uncertainties.
Conditions: Liquid, Closed cell (Static) method

CC(F)(F)CC(F)(F)F [1,1,1,3,3-pentafluorobutane]
Conditions	vapor or sublimation pressure [kPa]
332.79 K	194.9 ± 0.7
333.18 K	197.1 ± 0.7
342.65 K	261.5 ± 0.8
347.94 K	303.9 ± 0.8
352.87 K	348.7 ± 0.9
357.77 K	401.1 ± 0.9
363.03 K	459.2 ± 1
367.94 K	519.8 ± 1.1
372.87 K	586.1 ± 1.2
378.04 K	662.3 ± 1.3
382.95 K	741.4 ± 1.4
387.88 K	828.9 ± 1.5
393.02 K	927.2 ± 1.7
398.06 K	1036.4 ± 1.8
402.92 K	1146 ± 2
408.07 K	1271.5 ± 2.2
413.09 K	1403.8 ± 2.4
418 K	1542.4 ± 2.7
423.13 K	1698.6 ± 2.9
428.15 K	1862.7 ± 3.2
433.05 K	2034.5 ± 3.5
438.03 K	2225.4 ± 3.8
442.99 K	2425.5 ± 4.1
447.89 K	2637.1 ± 4.4

From the NIST ThermoML archive (doi:10.1016/j.fluid.2013.06.031)
